BindingDB's records for doi:10.1111/cbdd.12330 (Institute of Experimental Botany Ascr and Palacky University, 2014)

Experiments:
Assay in all cases: Kinase Selectivity
[1] = biological target: Cyclin-dependent kinase 4 (Homo sapiens, UniProt P11802)
Method: (§1) Cyclin-dependent kinase selectivity was evaluated using CDK1-cyclin B, CDK2-cyclin E, CDK4-cyclin D1, CDK7-cyclin H, and CDK9-cyclin T1.

[2] = biological target: Cyclin-dependent kinase 9 (Homo sapiens, UniProt P50750)
Method: as §1

[3] = biological target: Cyclin-dependent kinase 2 (Homo sapiens, UniProt P24941)
Method: as §1

[4] = biological target: Cyclin-dependent kinase 1 (Homo sapiens, UniProt P06493)
Method: as §1

[5] = biological target: Cyclin-dependent kinase 7 (Homo sapiens, UniProt P50613)
Method: as §1

Chain of Cyclin-dependent kinase 7 (P50613 whole entry): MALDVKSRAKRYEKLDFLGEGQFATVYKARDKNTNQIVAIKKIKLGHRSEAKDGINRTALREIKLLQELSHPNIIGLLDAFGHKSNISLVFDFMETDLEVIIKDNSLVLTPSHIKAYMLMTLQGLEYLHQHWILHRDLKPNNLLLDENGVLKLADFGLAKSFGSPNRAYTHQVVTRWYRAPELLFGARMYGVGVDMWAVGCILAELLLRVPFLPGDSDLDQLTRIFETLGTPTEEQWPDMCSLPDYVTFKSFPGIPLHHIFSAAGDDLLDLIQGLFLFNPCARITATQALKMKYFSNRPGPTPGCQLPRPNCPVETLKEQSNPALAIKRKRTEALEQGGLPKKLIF
Chain of Cyclin-dependent kinase 1 (P06493 whole entry): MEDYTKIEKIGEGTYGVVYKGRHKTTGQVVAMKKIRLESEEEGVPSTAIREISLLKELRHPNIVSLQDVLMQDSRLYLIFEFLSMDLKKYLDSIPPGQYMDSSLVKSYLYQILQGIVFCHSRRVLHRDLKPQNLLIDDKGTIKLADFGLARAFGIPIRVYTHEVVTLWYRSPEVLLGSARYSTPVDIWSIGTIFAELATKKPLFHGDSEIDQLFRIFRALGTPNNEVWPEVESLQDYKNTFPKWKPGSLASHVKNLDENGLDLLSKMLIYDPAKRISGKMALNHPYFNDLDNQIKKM
Chain of Cyclin-dependent kinase 9 (P50750 whole entry): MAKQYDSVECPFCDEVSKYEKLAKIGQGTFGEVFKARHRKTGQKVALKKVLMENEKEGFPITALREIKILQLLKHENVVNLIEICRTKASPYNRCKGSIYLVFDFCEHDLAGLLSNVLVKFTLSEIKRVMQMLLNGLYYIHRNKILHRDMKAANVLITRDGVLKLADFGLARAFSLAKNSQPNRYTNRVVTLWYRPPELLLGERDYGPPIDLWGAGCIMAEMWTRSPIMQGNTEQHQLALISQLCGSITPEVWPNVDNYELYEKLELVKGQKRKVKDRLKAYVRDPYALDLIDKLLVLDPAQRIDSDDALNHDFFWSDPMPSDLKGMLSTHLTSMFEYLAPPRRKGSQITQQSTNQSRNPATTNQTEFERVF
Chain of Cyclin-dependent kinase 4 (P11802 whole entry): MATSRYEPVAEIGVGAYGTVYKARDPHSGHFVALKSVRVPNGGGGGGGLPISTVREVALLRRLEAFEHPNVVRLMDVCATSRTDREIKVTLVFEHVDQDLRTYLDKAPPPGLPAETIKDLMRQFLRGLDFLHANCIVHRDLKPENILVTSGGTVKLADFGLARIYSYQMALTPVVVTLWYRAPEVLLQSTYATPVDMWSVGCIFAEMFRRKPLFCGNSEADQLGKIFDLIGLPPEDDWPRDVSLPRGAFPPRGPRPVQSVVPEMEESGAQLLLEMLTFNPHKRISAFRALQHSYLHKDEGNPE

Nc1n[nH]c(N)c1/N=N/c1ccncc1 [AAP1742]
IC50 [1]: 0.454 µM
IC50 [2]: 0.28 µM
IC50 [3]: 0.549 µM
IC50 [4]: 1.33 µM
IC50 [5]: 14.9 µM
